Reference: ChEMBL document CHEMBL3407375, “Substituted pyrrolidin-2-ones: Centrally acting orexin receptor antagonists promoting sleep. Part 2” (Bioorg Med Chem Lett, 2015)

Legend:
[1] = biological target: Orexin/Hypocretin receptor type 1 (Homo sapiens, UniProt O43613); assay: Antagonist activity at human orexin 1 receptor expressed in CHO cells assessed as inhibition of orexin-A-induced calcium mobilization by FLIPR assay; format: functional, cell-based
[2] = Intrinsic metabolic clearance in human liver microsomes at 1 uM; format: ADME; conditions: read-out: CLH
Cytochrome P450 3A4 [3] = biological target: T1, Cytochrome P450 3A4 (Homo sapiens, UniProt P08684); assay: Inhibition of CYP3A4 (unknown origin) using testosterone as marker substrate; format: ADME
T1 sequence (P08684 whole entry): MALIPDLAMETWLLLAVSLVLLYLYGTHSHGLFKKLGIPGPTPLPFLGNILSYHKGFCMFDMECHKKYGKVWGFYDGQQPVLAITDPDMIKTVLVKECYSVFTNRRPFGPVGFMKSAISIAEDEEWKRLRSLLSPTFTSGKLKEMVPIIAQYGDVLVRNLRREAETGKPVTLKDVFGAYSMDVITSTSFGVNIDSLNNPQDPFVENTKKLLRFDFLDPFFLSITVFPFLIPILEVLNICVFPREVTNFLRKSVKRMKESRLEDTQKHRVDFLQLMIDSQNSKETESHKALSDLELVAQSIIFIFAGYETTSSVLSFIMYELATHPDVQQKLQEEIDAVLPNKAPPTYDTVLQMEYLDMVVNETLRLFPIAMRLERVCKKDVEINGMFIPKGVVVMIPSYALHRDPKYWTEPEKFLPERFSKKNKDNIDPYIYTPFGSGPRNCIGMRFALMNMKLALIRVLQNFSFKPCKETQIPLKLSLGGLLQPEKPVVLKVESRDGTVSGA

[4] = Plasma protein binding in Wistar rat at 100 mg/kg, po after 3 hrs; format: ADME, organism-based; parameters: dose 100 mg/kg, route oral; conditions: read-out: PPB
[5] = Ratio of drug level in brain to plasma in Wistar rat at 100 mg/kg, po afer 3 hrs; format: ADME, organism-based; parameters: dose 100 mg/kg, route oral; conditions: read-out: BPR
[6] = Drug level in Wistar rat plasma at 100 mg/kg, po after 3 hrs; format: ADME, organism-based; parameters: dose 100 mg/kg, route oral
[7] = Drug level in Wistar rat brain measured per gram of tissue at 100 mg/kg, po after 3 hrs; format: ADME, organism-based; parameters: dose 100 mg/kg, route oral; conditions: read-out: Drug uptake
Orexin receptor type 2 = Orexin receptor type 2 (Homo sapiens, UniProt O43614); assay: Antagonist activity at human orexin 2 receptor expressed in CHO cells assessed as inhibition of orexin-A-induced calcium mobilization by FLIPR assay; format: functional, cell-based
Chain of Orexin receptor type 2 (O43614 whole entry, looked up): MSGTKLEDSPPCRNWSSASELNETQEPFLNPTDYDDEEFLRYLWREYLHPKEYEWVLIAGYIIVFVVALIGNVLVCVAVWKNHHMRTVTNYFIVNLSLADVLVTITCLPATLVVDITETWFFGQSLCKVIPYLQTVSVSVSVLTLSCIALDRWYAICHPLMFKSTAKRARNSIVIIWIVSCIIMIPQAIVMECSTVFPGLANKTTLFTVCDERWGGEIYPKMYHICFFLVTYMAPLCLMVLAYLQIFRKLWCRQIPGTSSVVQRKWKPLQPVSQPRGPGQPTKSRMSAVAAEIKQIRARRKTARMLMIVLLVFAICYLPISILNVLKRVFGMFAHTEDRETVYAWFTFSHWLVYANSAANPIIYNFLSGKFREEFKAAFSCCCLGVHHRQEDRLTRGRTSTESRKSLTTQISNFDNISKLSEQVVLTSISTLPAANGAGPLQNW

MDR1 [8] = assay: Passive apparent permeability from apical to basolateral side in MDCK cells expressing human MDR1; format: ADME, cell-based, Canis lupus familiaris; conditions: dog
Rattus norvegicus [9] = assay: Induction of sleep in Wistar rat assessed as decrease in time spent in active wake at 100 mg/kg, po after 12 hrs relative to control; format: functional
Rattus norvegicus [10] = assay: Induction of sleep in Wistar rat assessed as time spent in quiet wake at 100 mg/kg, po after 12 hrs (reference value: 19.5%); format: functional
Cytochrome P450 2D6 [11] = biological target: T2, Cytochrome P450 2D6 (Homo sapiens, UniProt P10635); assay: Inhibition of CYP2D6 (unknown origin); format: ADME
T2 sequence (P10635 whole entry): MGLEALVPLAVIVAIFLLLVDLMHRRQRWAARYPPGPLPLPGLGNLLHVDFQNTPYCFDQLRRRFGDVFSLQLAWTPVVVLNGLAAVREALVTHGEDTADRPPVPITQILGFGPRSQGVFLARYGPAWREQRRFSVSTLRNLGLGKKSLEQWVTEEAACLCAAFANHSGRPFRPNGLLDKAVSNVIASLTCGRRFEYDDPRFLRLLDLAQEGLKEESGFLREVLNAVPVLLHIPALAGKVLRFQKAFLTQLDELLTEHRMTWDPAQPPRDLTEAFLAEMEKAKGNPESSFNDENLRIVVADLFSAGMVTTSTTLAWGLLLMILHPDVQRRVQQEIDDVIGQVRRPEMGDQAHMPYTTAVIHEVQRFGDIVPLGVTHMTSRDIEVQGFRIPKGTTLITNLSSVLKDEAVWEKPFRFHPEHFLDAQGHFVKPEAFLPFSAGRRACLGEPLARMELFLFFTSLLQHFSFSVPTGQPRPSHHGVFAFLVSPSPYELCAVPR

[12] = Intrinsic metabolic clearance in rat liver microsomes at 1 uM; format: ADME; conditions: read-out: CLH
Cytochrome P450 3A4 [13] = biological target: T1, Cytochrome P450 3A4; assay: Inhibition of CYP3A4 (unknown origin); format: ADME
Rattus norvegicus [14] = assay: Induction of sleep in Wistar rat assessed as increase in time spent in non-REM sleep at 100 mg/kg, po after 12 hrs relative to control; format: functional
Rattus norvegicus [15] = assay: Induction of sleep in Wistar rat assessed as time spent in REM sleep at 100 mg/kg, po after 12 hrs (reference value: 6%); format: functional
Cytochrome P450 2C9 [16] = biological target: T3, Cytochrome P450 2C9 (Homo sapiens, UniProt P11712); assay: Time dependent inhibition of CYP2C9 (unknown origin); format: ADME
T3 sequence (P11712 whole entry): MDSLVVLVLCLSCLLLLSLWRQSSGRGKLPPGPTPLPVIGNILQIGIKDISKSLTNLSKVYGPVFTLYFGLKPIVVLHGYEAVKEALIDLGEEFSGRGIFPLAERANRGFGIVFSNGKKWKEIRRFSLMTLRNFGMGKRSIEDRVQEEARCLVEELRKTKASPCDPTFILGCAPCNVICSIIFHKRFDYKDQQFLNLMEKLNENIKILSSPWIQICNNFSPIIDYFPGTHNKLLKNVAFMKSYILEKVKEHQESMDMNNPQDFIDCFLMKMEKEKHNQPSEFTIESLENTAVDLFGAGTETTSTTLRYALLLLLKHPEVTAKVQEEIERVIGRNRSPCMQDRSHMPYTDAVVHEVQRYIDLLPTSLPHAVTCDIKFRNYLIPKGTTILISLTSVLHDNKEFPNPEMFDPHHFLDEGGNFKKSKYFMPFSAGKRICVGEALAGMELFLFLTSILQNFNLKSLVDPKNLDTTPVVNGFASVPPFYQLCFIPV

Rattus norvegicus [17] = assay: Induction of sleep in Wistar rat assessed as decrease in home cage activity at 100 mg/kg, po after 12 hrs relative to control; format: functional
Cytochrome P450 2C9 [18] = biological target: T3, Cytochrome P450 2C9; assay: Inhibition of CYP2C9 (unknown origin); format: ADME
Rattus norvegicus [19] = assay: Induction of sleep in Wistar rat assessed as time spent in active wake at 100 mg/kg, po after 12 hrs (reference value: 44.6%); format: functional
Cytochrome P450 2D6 [20] = biological target: T2, Cytochrome P450 2D6; assay: Time dependent inhibition of CYP2D6 (unknown origin); format: ADME
Rattus norvegicus [21] = assay: Induction of sleep in Wistar rat assessed as increase in time spent in REM sleep at 100 mg/kg, po after 12 hrs relative to control; format: functional
Rattus norvegicus [22] = assay: Induction of sleep in Wistar rat assessed as time spent in non-REM sleep at 100 mg/kg, po after 12 hrs (reference value: 29.8%); format: functional
Cytochrome P450 3A4 [23] = biological target: T1, Cytochrome P450 3A4; assay: Time dependent inhibition of CYP3A4 (unknown origin); format: ADME
MDR1 [24] = assay: Passive apparent permeability from basolateral to apical side in MDCK cells expressing human MDR1; format: ADME, cell-based, Canis lupus familiaris; conditions: dog
Rattus norvegicus [25] = assay: Induction of sleep in Wistar rat assessed as time spent in non-REM sleep at 100 mg/kg, po after 12 hrs (reference value: 32.1%); format: functional
Rattus norvegicus [26] = assay: Induction of sleep in Wistar rat assessed as time spent in active wake at 100 mg/kg, po after 12 hrs (reference value: 30%); format: functional
Rattus norvegicus [27] = assay: Induction of sleep in Wistar rat assessed as time spent in REM sleep at 100 mg/kg, po after 12 hrs (reference value: 4.7%); format: functional
Rattus norvegicus [28] = assay: Induction of sleep in Wistar rat assessed as time spent in quiet wake at 100 mg/kg, po after 12 hrs (reference value: 32.8%); format: functional

Chain of Orexin/Hypocretin receptor type 1 (O43613 whole entry, looked up): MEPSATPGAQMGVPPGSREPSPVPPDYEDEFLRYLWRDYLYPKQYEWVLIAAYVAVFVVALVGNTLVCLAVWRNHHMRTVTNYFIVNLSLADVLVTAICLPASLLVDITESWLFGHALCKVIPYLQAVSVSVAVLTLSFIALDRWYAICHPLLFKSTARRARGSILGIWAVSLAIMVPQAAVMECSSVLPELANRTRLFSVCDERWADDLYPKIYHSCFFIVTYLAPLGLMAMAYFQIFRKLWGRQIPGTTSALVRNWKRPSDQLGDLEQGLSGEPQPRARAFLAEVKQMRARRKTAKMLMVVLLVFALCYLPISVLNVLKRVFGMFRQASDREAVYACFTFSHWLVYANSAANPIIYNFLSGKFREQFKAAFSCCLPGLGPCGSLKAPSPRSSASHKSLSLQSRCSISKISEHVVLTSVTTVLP

IC50 [1]	microsomal CLint at 1 µM [2]	IC50 (Cytochrome P450 3A4 [3])	SMILES	other results
3.61 µM			CC[C@H]1C[C@@H](c2c(OC)cccc2OC)N(Cc2ccc(OC(F)(F)F)cc2)C1=O (racemic)	
6.94 µM			COc1cccc(OC)c1[C@@H]1C[C@@H](OC)C(=O)N1Cc1ccc(OC(F)(F)F)cc1 (racemic)	
	257 µL/min/mg		COc1cccc(OC)c1[C@@H]1C[C@@H](C)C(=O)N1Cc1ccc(OC(F)(F)F)cc1 (racemic)	
	232 µL/min/mg	5.2 µM	COc1cccc(OC)c1C1CC(F)(F)C(=O)N1Cc1ccc(OC(F)(F)F)cc1 (racemic)	
		8.7 µM	COc1cccc(OC)c1[C@@H]1C[C@H](C)C(=O)N1Cc1ccc(OC(F)(F)F)cc1 (racemic)	
0.004 µM	128 µL/min/mg		COc1cccc(OC)c1[C@@H]1C[C@@H](O)C(=O)N1Cc1ccc2oc3ccccc3c2c1 (racemic)	
	142 µL/min/mg	25 µM	COc1cccc(OC)c1[C@@H]1C[C@@H](O)C(=O)N1Cc1ccc(OC(F)(F)F)cc1 (racemic)	
	233 µL/min/mg		COc1cccc(OC)c1[C@@H]1C[C@H](F)C(=O)N1Cc1ccc(OC(F)(F)F)cc1 (racemic)	fraction unbound at 3 h [4]: 0.01; Kp at 3 h [5]: 3.1; concentration at 3 h [6]: 0.087 µg/mL; concentration at 3 h [7]: 270 ng/g
8.3 µM			COc1cccc(OC)c1[C@@H]1C[C@H](N(C)C)C(=O)N1Cc1ccc(OC(F)(F)F)cc1 (racemic)	IC50 (Orexin receptor type 2): 8.72 µM
> 10 µM			CN[C@H]1C[C@@H](c2c(OC)cccc2OC)N(Cc2ccc(OC(F)(F)F)cc2)C1=O (racemic)	IC50 (Orexin receptor type 2): 5.78 µM
	577 µL/min/mg	6.9 µM	COc1cccc(OC)c1C1CCC(=O)N1Cc1ccc2oc3ccccc3c2c1 (racemic)	
> 10 µM			COc1cccc(OC)c1[C@@H]1C[C@@H](N(C)C)C(=O)N1Cc1ccc(OC(F)(F)F)cc1 (racemic)	IC50 (Orexin receptor type 2): 3.62 µM
0.041 µM	277 µL/min/mg	6.6 µM	COc1cccc(OC)c1[C@@H]1C[C@H](Cl)C(=O)N1Cc1ccc(OC(F)(F)F)cc1 (racemic)	
0.168 µM		1.4 µM	COc1cccc(OC)c1[C@@H]1C[C@H](OC)C(=O)N1Cc1ccc(OC(F)(F)F)cc1 (racemic)	
0.005 µM			COc1cccc(OC)c1[C@@H]1C[C@H](Cl)C(=O)N1Cc1ccc2oc3ccccc3c2c1 (racemic)	
2.05 µM			COc1cccc(OC)c1[C@@H]1C[C@@H](N)C(=O)N1Cc1ccc(OC(F)(F)F)cc1 (racemic)	IC50 (Orexin receptor type 2): 1.98 µM
> 10 µM			CCO[C@H]1C[C@@H](c2c(OC)cccc2OC)N(Cc2ccc(OC(F)(F)F)cc2)C1=O (racemic)	IC50 (Orexin receptor type 2): 3.96 µM
0.563 µM			COc1cccc(OC)c1[C@@H]1C[C@@H](Cl)C(=O)N1Cc1ccc(OC(F)(F)F)cc1 (racemic)	
	96 µL/min/mg	46 µM	COc1cccc(F)c1C1C[C@@H](O)C(=O)N1Cc1ccc2oc3ccccc3c2c1 (mixture of isomers)	
	363 µL/min/mg	8.8 µM	COc1cccc(OC)c1[C@@H]1C[C@H](F)C(=O)N1Cc1ccc2oc3ccccc3c2c1 (racemic)	
9.49 µM			COc1cccc(OC)c1[C@@H]1C[C@H](N)C(=O)N1Cc1ccc(OC(F)(F)F)cc1 (racemic)	IC50 (Orexin receptor type 2): 7.03 µM
	102 µL/min/mg	> 50 µM	COc1cccc(F)c1[C@@H]1C[C@@H](O)C(=O)N1Cc1ccc2oc3ccccc3c2c1	Papp A→B (MDR1 [8]): 125 nm/s; inhibition in vivo at 100 mg/kg (Rattus norvegicus [9]): 20%; Activity (Rattus norvegicus [10]): 19.2%; IC50 (Cytochrome P450 2D6 [11]): 47 µM; microsomal CLint at 1 µM [12]: > 1250 µL/min/mg; Kp at 3 h [5]: 2.3; IC50 (Cytochrome P450 3A4 [13]): > 50 µM; Activity (Rattus norvegicus [14]): 20%; Activity (Rattus norvegicus [15]): 7.1%; TDI (Cytochrome P450 2C9 [16]): Not Active; concentration at 3 h [7]: 585 ng/g; inhibition in vivo at 100 mg/kg (Rattus norvegicus [17]): 35%; IC50 (Cytochrome P450 2C9 [18]): 9.4 µM; Activity (Rattus norvegicus [19]): 39.2%; TDI (Cytochrome P450 2D6 [20]): Not Active; Activity (Rattus norvegicus [21]): 38%; Activity (Rattus norvegicus [22]): 34.4%; TDI (Cytochrome P450 3A4 [23]): Not Active; Papp B→A (MDR1 [24]): 266 nm/s
	349 µL/min/mg	21 µM	COc1cccc(F)c1[C@@H]1C[C@H](F)C(=O)N1Cc1ccc2oc3ccccc3c2c1 (racemic)	
5.81 µM			CN[C@@H]1C[C@@H](c2c(OC)cccc2OC)N(Cc2ccc(OC(F)(F)F)cc2)C1=O (racemic)	IC50 (Orexin receptor type 2): 2.4 µM
			CNC(=O)[C@@H](c1ccccc1)N1CCc2cc(OC)c(OC)cc2[C@@H]1CCc1ccc(C(F)(F)F)cc1 [ALMOREXANT]	Activity (Rattus norvegicus [25]): 38.5%; Activity (Rattus norvegicus [26]): 24%; Activity (Rattus norvegicus [27]): 6.5%; inhibition in vivo at 100 mg/kg (Rattus norvegicus [17]): 43%; Activity (Rattus norvegicus [28]): 31%
